Reference: patent publication US20170342451A1, “BIOSYNTHESIS OF PACLITAXEL INTERMEDIATE” (Board of Trustees of Michigan State University, priority 2012, published 2017)

Columns and labels:
TycA = target: T1, TycA (Brevibacillus parabrevis, UniProt P09095); format: biochemical, Brevibacillus brevis; conditions: ATP at apparent saturation
T1 construct: this wild-type tycA cDNA encoding the A-, T-, and E-domains was subcloned into a pSU18 vector; made in house; host or cells: Escherichia coli BL21(DE3)
T1 sequence (P09095 with tags, fused parts or gaps): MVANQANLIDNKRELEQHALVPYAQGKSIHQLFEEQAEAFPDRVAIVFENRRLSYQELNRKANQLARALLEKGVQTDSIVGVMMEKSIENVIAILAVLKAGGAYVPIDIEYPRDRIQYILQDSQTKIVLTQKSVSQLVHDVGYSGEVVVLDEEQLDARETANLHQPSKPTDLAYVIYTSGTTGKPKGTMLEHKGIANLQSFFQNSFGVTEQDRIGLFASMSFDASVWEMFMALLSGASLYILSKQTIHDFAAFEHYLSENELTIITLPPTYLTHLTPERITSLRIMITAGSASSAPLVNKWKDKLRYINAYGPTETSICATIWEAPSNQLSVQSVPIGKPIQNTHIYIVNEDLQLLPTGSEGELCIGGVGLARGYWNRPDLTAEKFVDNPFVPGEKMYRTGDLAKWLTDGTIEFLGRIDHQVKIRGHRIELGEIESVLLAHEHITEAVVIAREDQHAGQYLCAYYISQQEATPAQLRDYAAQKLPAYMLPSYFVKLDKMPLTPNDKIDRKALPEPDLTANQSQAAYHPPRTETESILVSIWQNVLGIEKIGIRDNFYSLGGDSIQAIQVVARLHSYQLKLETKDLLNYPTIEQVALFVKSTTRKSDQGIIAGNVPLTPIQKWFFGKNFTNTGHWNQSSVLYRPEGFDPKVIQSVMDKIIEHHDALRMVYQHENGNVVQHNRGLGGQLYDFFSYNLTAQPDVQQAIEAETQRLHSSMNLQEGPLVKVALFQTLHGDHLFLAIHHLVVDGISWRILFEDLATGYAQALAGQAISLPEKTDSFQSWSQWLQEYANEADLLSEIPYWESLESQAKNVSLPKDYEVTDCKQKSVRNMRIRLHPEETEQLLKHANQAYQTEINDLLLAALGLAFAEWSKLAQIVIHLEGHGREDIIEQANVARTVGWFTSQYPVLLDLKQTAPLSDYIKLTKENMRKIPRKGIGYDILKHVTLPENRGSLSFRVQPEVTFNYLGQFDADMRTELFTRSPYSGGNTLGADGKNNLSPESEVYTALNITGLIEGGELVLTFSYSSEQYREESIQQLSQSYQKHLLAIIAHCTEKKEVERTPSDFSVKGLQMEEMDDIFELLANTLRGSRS
Procedure: (§1) Each (S)-α-phenylalanine, (R)-β-phenylalanine, and (2R,3S)-phenylisoserine substrate (at 1 mM) was separately incubated (31° C.) in 100-μL reactions containing 100 mM HEPES (pH 8.0), ATP (1 mM), MgCl2 (3 mM) and TycA or TycA-S563A (20 μg in 0.1-mL assays) to establish steady-state conditions relative to protein concentration and time. Under steady-state conditions, each (S)-α-phenylalanine, (R)-β-phenylalanine, and (2R,3S)-phenylisoserine substrate, at ten concentration intervals from 5 to 1000 μM (in duplicate), was separately incubated with TycA or TycA-S563A for 1 min at 31° C. The reactions were acid-quenched (pH 3 with 10% formic acid), and the biosynthetic products were quantified by LC-ESI-MRM mass spectrometry (Anderson and Hunter, 2006) on the LC-QP/ESI-MS/MS fitted with a C18 Ascentis Express column (2.5×50 mm, 2.7 μm) at 30° C. An aliquot (5 μL) of each sample was loaded onto the column and the analytes were eluted with the CoA-Elution Gradient (see procedures described above). The effluent from the chromatography column was directed to the mass spectrometer where the first quadrupole mass analyzer (in negative ion mode) was set to select for the molecular ion of a biosynthesized (S)-α-phenylalanine-AMP, (R)-β-phenylalanine-AMP, and (2R,3S)-phenylisoserine-AMP. […]

TycA-S563A = TycA-S563A (Brevibacillus parabrevis, UniProt P09095, S563A); format: biochemical, Brevibacillus brevis; set-up: The T-domain mutant TycA-S563A was also subcloned into a pSU18 vector and heterologously expressed as a His6-fusion; made in house; host or cells: Escherichia coli BL21(DE3)
Procedure: as §1

**Q.** Which “kcat^ATP/KM of TycA lower than the value for conversion to the CoA thioester” value (TycA) does the source give for `N[C@H](CC(=O)O)c1ccccc1` [(R)-β-Phe, (R)-β-phenylalanine] here?
**A.** Its value is roughly 15 fold.

**Q.** And the “kcat^ATP” value (TycA; acyl-AMP formation)?
**A.** The value was 0.00167 ± 0.00017 s⁻¹.

**Q.** And the “kcat^ATP/KM of TycA-S563A lower than the value for conversion to the CoA thioester” value (TycA-S563A)?
**A.** The value was “about 46 fold”.

**Q.** What about the “kcat^ATP” value (TycA-S563A; acyl-AMP formation, ATP at apparent saturation) of the same compound?
**A.** Its value is 0.001 ± 0.00017 s⁻¹.
